# According to US20190352341A1, “MODIFIED PEPTIDES AND THEIR USE FOR TREATING SYSTEMIC LUPUS ERYTHEMATOSUS” (IMMUPHARMA FRANCE SA, priority 2018, published 2019):
# Numbered stars: 1 amine (or outer) side, 2 acyl side, 3 side chain; on linkers, the order of the positions; unused ones are H or OH. Square brackets hold non-standard residues; d marks the D form. Peptide text beside a SMILES is read from it. ξ: configuration not given here. X1 = CSCC[C@H](NC(=N)[C@H](Cc1c[nH]cn1)N[*:1])C(=O)[*:2]; pS = N[C@@H](COP(=O)(O)O)C(=O)O; Ile(3ξ) = CCC(C)[C@H](N)C(=O)O
# Key:
# [1] = target: T1, HSC70 protein (Bos taurus, UniProt P19120); experiment: Affinity of the peptides for HSC70 protein (BIAcore); assay type: binding, bovine
# T1 construct: purchased Stressgen
# Method: BIAcore 3000 system (Biacore AB) was used to evaluate the binding of P140 peptides to HSC70 protein (Page et al., 2009, and 2011). Sensor chip CMS, surfactant P20, amine coupling kit containing N-hydroxysuccinimide (NHS) and N-ethyl-N′-dimethylaminopropyl carbodiimide (EDC), 2-(2-pyridinyldithio)ethaneamine (PDEA) and ethanolamine were from Biacore AB. Biosensor assays were performed with HBS-EP buffer as running buffer (10 mM HEPES, 150 mM NaCl, 3 mM EDTA, 0.005% surfactant P20, pH 7.4). The compounds were diluted in the running buffer. The sensor chip surface was regenerated after each experiment by injecting 10 μL of 10 mM HCl. Recombinant bovine HSC70 (Stressgen) was immobilized on flow cells of a CM5 sensor chip through its thiol groups using 35 μL PDEA in 50 mM borate buffer, pH 8.3 on the NHS/EDC-activated matrix. Then, 35 μL of HSC70 (100 μg/mL in formate buffer, pH 4.3) were injected until a response of 13,000 response units (RU) corresponding to 13 ng/mm^2 of HSC70 was immobilized. Twenty μL of a 50 mM cysteine/1 M NaCl solution was used to saturate unoccupied sites on the chip. The direct binding measurement of P140 peptides to HSC70 was carried out at 25° C. with a constant flow rate of 20 μL/min. P140 peptide and analogues were injected in the flux at different concentrations for 3 min, followed by a dissociation phase of 3 min. The kinetic parameters were calculated using the BIAeval 3.1 software on a personal computer. Analysis was performed using the simple 1:1 Langmuir binding model. The specific binding profiles were obtained after subtracting the response signal from the control empty channel and from blank-buffer injection. The fitting to each model was judged by the χ^2 value and randomness of residue distribution compared to the theoretical model.
# [2] = tested on: C57BL/6 mice; experiment: K/B×N serum transfer mouse model of rheumatoid arthritis; assay type: in vivo
# Method: The TCR transgenic mice expressing the KRN and the MHC class II A^g7 molecule (K/B×N mice) have developed a severe inflammatory arthritis. The administration of serum of these mice to healthy recipient mice causes inflammatory arthritis over a period of about 15 days with a peak ignition around day 7 post-injection.
# Two mouse serum administrations from K/B×N were performed (day 0 and day 2). The injection of serum (100 μl/mouse) is performed by intra-peritoneal (ip) injection in mice C57BL/6 (or B6) for 8 weeks (n=10); untreated mouse (n=10).
# The P140 peptide (100 μg/100 μl; iv retro-orbital) was administered as follows:
# Curative treatment: Injection at day 1 and day 4, to guide the peak of inflammatory disease. Preventive treatment: Injection at day −7 and day −2. Bleeding S0 (at day 0) is followed by bloodletting conducted every six days to dispose of serum. The study ends when inflammation has returned to its basal level, to around day 20 (see FIG. 21).
# During the peak of inflammation, every day the animals are evaluated, and swelling score of articulation is established. It is ranged from 0 to 4 and based on a joint observation of the animal. In practice, this score is given for each leg (4 values) and these values are added together to get a general score that ranges from 0 to 16 (FIG. 22).
# [3] = tested on: MRL/lpr B cells; conditions: cited from earlier work
# [4] = tested on: SLE patients; experiment: Clinical trial in SLE patients (SRI-4 response); assay type: in vivo, human
# Method: Human patients with SLE were administered the “standard of care” for SLE+placebo or SEQ ID NO.:1 (serine 10 phosphorylated) (“P140”). The P140 peptide was administered in a solution with mannitol; the placebo was a mannitol solution only. Patients were treated for 52 weeks.
# Based on the protocol and the commonly accepted study design, there were two groups of patients: (1) patients receiving P140 plus “Standard of Care” and (2) patients receiving placebo plus “Standard of Care”. “Standard of Care” includes treatment with other drugs such as steroids, anti-malarials, methotrexate etc. No patients were treated just with placebo, but all were receiving other drug treatments. The definition of a “responder” is based on the SLE Responder Index (SRI-4) score, which requires a reduction of at least four points in this score. Therefore, patients who improve by less than four points are counted as non-responders, but also no distinction is made between patients who improve by more than 4 points, all being equal “responders”.
# The SRI-4 score comprises criteria from three different internationally validated indices, SELENA-SLE Disease Activity Index (SELENA-SLEDAI), Physician Global Assessment (PGA) and the British Isles Lupus Assessment Group (BILAG) 2004. See Luijten, K. M. et al., Autoimmun Rev. 2012 March; 11(5):326-9.
# [5] = BIAcore, 25° C., 1:1 Langmuir model, global fit
# T1 sequence (P19120 whole entry): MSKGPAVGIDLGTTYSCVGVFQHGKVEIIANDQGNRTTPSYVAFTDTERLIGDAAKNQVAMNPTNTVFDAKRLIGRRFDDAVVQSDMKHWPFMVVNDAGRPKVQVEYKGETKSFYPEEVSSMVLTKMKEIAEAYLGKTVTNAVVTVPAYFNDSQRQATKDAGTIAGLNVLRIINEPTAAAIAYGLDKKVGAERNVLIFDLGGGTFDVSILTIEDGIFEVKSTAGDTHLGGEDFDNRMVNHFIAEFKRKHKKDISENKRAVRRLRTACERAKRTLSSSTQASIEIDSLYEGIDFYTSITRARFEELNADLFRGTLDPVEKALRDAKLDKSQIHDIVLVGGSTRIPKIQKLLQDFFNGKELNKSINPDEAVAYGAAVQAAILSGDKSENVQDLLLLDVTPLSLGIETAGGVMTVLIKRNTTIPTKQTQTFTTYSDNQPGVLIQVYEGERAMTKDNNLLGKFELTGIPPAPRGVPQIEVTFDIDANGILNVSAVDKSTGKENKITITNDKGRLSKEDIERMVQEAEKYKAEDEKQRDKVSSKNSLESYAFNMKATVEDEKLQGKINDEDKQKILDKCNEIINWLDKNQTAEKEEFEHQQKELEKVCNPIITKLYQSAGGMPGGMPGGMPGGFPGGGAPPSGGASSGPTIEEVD
smiles,measurement,setting,value
CCC(C)[C@H](NC(=O)[C@H](Cc1ccccc1)NC(=O)[C@H](C)NC(=O)[C@H](Cc1ccc(O)cc1)NC(=O)CNC(=O)[C@H](CCCNC(=N)N)NC(=O)[C@@H]1CCCN1C(=O)[C@H](CCCCN)NC(=O)CNC(=O)[C@H](COP(=O)(O)O)NC(=O)[C@H](CCCNC(=N)N)NC(=O)[C@H](CCCCN)NC(=O)[C@H](CO)NC(=O)[C@H](Cc1ccc(O)cc1)NC(=O)[C@@H](NC(=O)[C@H](CCSC)NC(=N)[C@H](Cc1c[nH]cn1)NC(=O)[C@@H](NC(=O)[C@@H](N)CCCNC(=N)N)C(C)CC)C(C)C)C(=O)N[C@@H](CCC(=O)O)C(=O)N[C@@H](Cc1ccc(O)cc1)C(=O)O (stereo partly shown) [Compound P140] (H-R[Ile(3ξ)][X1]VYSKR[pS]GKPRGYAF[Ile(3ξ)]EY-OH),Rmax,"[1]; BIAcore, 25° C., 1:1 Langmuir model",83.3 RU
same,KA,[1]; [5],144000 M⁻¹
same,kd,[1]; [5],0.00312 s⁻¹
same,kon,"[1]; BIAcore, 25° C., 1:1 Langmuir model, global fit, read-out: ka",450 M⁻¹ s⁻¹
same,RI,[1]; peptide 1.56 μM,12.1 RU
same,Req,[1]; peptide 1.56 μM,15.3 RU
same,kobs,[1]; peptide 1.56 μM,0.00382 s⁻¹
same,RI,[1]; peptide 3.12 μM,20.9 RU
same,Req,[1]; peptide 3.12 μM,25.8 RU
same,kobs,[1]; peptide 3.12 μM,0.00452 s⁻¹
same,RI,[1]; peptide 6.25 μM,33.8 RU
same,Req,[1]; peptide 6.25 μM,39.5 RU
same,kobs,[1]; peptide 6.25 μM,0.00593 s⁻¹
same,RI,[1]; peptide 12.5 μM,62.5 RU
same,Req,[1]; peptide 12.5 μM,53.6 RU
same,kobs,[1]; peptide 12.5 μM,0.00874 s⁻¹
same,RI,[1]; peptide 25 μM,118 RU
same,Req,[1]; peptide 25 μM,65.2 RU
same,kobs,[1]; peptide 25 μM,0.0144 s⁻¹
same,Weight loss,"[2]; curative protocol (P140 day 1 and day 4), from day 2",15%
same,Weight gain,"[2]; curative protocol, between day 5 and the end of the study, controls 5%",20%
same,"Inflammation score per leg, maximum","[2]; curative protocol, rear legs",~1.5
same,Weight loss,"[2]; preventive protocol (P140 day −7 and day −2), day 1 to day 7, controls 10%",5%
same,"Increase in size of joints, right back legs","[2]; preventive protocol, day 0 to day 7, controls about 22%",around 12%
same,"Increase in size of the joint, left hind paws","[2]; preventive protocol, day 0 to day 7, controls about 30%",about 15%
same,"Increase in size of articulation, left front leg","[2]; preventive protocol, controls 45%",20%
same,Swelling in the joints of right front leg,"[2]; preventive protocol, controls nearly 45%",+20%
same,"General inflammation score, maximum","[2]; preventive protocol, sum of four legs, controls around 7 (printed day 7)",≤ 5
same,Autophagy markers SQSTM1 and MAP1LC3 in MRL/lpr B cells,"[3]; after P140 treatment (Page et al., 2011)",accumulation
same,Expression of HSPA8 and LAMP-2A in MRL/lpr B cells,"[3]; after treating mice with P140 peptide (Page et al., 2011; Macri et al.)",down-regulated
same,Response rate (SRI-4),"[4]; Anti dsDNA+ European study population, placebo 48.8%",71.1%
same,Response rate (SRI-4),"[4]; Anti dsDNA+ patients, full study population, 52 weeks, plus standard of care, placebo 47.3%",61.5%
same,Patients in full remission,"[4]; Anti dsDNA+ patients, none in the placebo group",7.6%
same,Tolerability,"[4]; SLE patients, 52 weeks",well tolerated
